Test results from patent publication US11091478B2 (Fochon Pharmaceuticals, Ltd., priority 2017, dated 2021).
Read-outs that look alike come from different tables or passages of the source.

Columns and labels:
DOHH2 cells = assay: Cell proliferation assay (MTS), DOHH2 cells, 120 h; type: cell-based
Outline: (§1)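 RS4;11 and DOHH2 cells at 5000 cells/well in RPMI-1640 with 10% FBS were treated with compound at 1.5–10000 nM final, nine points, at 37 °C, 5% CO2. Exposure was 72 h for RS4;11 and 120 h for DOHH2. MTS was added for 2 h, absorbance read at 490/650 nm, and IC50 calculated.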

RS4;11 cells = assay: Cell proliferation assay (MTS), RS4;11 cells, 72 h; type: cell-based
Outline: as §1

| SMILES | IC50 (DOHH2 cells; Homo sapiens, DOHH-2, 120 h) [nM] | IC50 (RS4;11 cells; Homo sapiens, RS4-11, 72 h) [nM] | IC50 (DOHH2 cells) [nM] | IC50 (RS4;11 cells) [nM] |
| --- | --- | --- | --- | --- |
| CC1(C)CCC(CN2CCN(c3ccc(C(=O)NS(=O)(=O)c4cc5c(c([N+](=O)[O-])c4)N[C@@H](C(=O)N4CCOCC4)CO5)c(Oc4cnc5[nH]ccc5c4)c3)CC2)=C(c2ccc(Cl)cc2)C1 [Example 2-103] | 490 | 16 |  |  |
| CN1CCN(C(=O)[C@H]2COc3cc(S(=O)(=O)NC(=O)c4ccc(N5CCN(CC6=C(c7ccc(Cl)cc7)CC(C)(C)CC6)CC5)cc4Oc4cnc5[nH]ccc5c4)cc([N+](=O)[O-])c3N2)CC1 [Example 2-104, (R)-2-((1H-pyrrolo[2,3-b]pyridin-5-yl)oxy)-4-(4-((4′-chloro-5,5-dimethyl-3,4,5,6-tetra-hydro[1,1′-biphenyl]-2-yl)methyl)piperazin-1-yl)-N-((3-(4-methylpiperazine-1-carbo-nyl)-5-nitro-3,4-dihydro-2H-benzo[b][1,4]oxazin-7-yl)sulfonyl)benzamide] | 173 | 7 |  |  |
| C[C@H]1CNc2c(cc(S(=O)(=O)NC(=O)c3ccc(N4CCN(CC5=C(c6ccc(Cl)cc6)CC(C)(C)CC5)CC4)cc3Oc3cnc4[nH]ccc4c3)cc2[N+](=O)[O-])O1 [Example 2-105, (S)-2-((1H-pyrrolo[2,3-b]pyridin-5-yl)oxy)-4-(4-((4′-chloro-5,5-dimethyl-3,4,5,6-tetra-hydro-[1,1′-biphenyl]-2-yl)methyl)piperazin-1-yl)-N-((2-methyl-5-nitro-3,4-dihydro-2H-benzo[b][1,4]oxazin-7-yl)sulfonyl)benza-mide] | 51 | 35 |  |  |
| C[C@@H]1COc2cc(S(=O)(=O)NC(=O)c3ccc(N4CCN(CC5=C(c6ccc(Cl)cc6)CC(C)(C)CC5)CC4)cc3Oc3cnc4[nH]ccc4c3)cc([N+](=O)[O-])c2N1 [Example 2-106, (R)-2-((1H-pyrrolo[2,3-b]pyridin-5-yl)oxy)-4-(4-((4′-chloro-5,5-dimethyl-3,4,5,6-tetra-hydro-[1,1′-bipehnyl]-2-yl)methyl)piperazin-1-yl)-N-((3-methyl-5-nitro-3,4-dihydro-2H-benzo[b][1,4]oxazin-7-yl)sulfonyl)benza-mide] | 19 | 9 |  |  |
| CC[C@@H]1COc2cc(S(=O)(=O)NC(=O)c3ccc(N4CCN(CC5=C(c6ccc(Cl)cc6)CC(C)(C)CC5)CC4)cc3Oc3cnc4[nH]ccc4c3)cc([N+](=O)[O-])c2N1 [Example 2-107] | 22 | 8 |  |  |
| CC(C)[C@@H]1COc2cc(S(=O)(=O)NC(=O)c3ccc(N4CCN(CC5=C(c6ccc(Cl)cc6)CC(C)(C)CC5)CC4)cc3Oc3cnc4[nH]ccc4c3)cc([N+](=O)[O-])c2N1 [Example 2-108, (R)-2-((1H-pyrrolo[2,3-b]pyridin-5-yl)oxy)-4-(4-((4′-chloro-5,5-dimethyl-3,4,5,6-tetra-hydro-[1,1′-biphenyl]-2-yl)methyl)piperazin-1-yl)-N-((3-isopropyl-5-nitro-3,4-dihydro-2H-benzo[b][1,4]oxazin-7-yl)sulfonyl) benzamide] | 51 | 16 |  |  |
| CC1(C)CCC(CN2CCN(c3ccc(C(=O)NS(=O)(=O)c4cc5c(c([N+](=O)[O-])c4)N[C@H](C4CC4)CO5)c(Oc4cnc5[nH]ccc5c4)c3)CC2)=C(c2ccc(Cl)cc2)C1 [Example 2-109, (R)-2-((1H-pyrrolo[2,3-b]pyridin-5-yl)oxy)-4-(4-((4′-chloro-5,5-dimethyl-3,4,5,6-tetra-hydro[1,1′-biphenyl]-2-yl)methyl)piperazin-1-yl)-N-((3-cyclopropyl-5-nitro-3,4-dihy-dro-2H-benzo[b][14,]oxazin-7-yl)sulfonyl) benzamide] | 56 | 11 |  |  |
| COC[C@@H]1COc2cc(S(=O)(=O)NC(=O)c3ccc(N4CCN(CC5=C(c6ccc(Cl)cc6)CC(C)(C)CC5)CC4)cc3Oc3cnc4[nH]ccc4c3)cc([N+](=O)[O-])c2N1 [Example 2-110, (R)-2-((1H-pyrrolo[2,3-b]pyridin-5-yl)oxy)-4-(4-((4′-chloro-5,5-dimethyl-3,4,5,6-tetra-hydro-[1,1′-biphenyl]-2-yl)methyl)piperazin-1-yl)-N-((3-(methoxymethyl)-5-nitro-3,4-dihydro-2H-benzo[b][1,4]oxazin-7-yl)sulfo-nyl)benzamide] | 96 | 2 |  |  |
| C[C@H]1COc2cc(S(=O)(=O)NC(=O)c3ccc(N4CCN(CC5=C(c6ccc(Cl)cc6)CC(C)(C)CC5)CC4)cc3Oc3cnc4[nH]ccc4c3)cc([N+](=O)[O-])c2N1 [Example 2-111, (S)-2-((1H-pyrrolo[2,3-b]pyridin-5-yl)oxy)-4-(4-((4′-chloro-5,5-dimethyl-3,4,5,6-tetra-hydro-[1,1′-biphenyl]-2-yl)methyl)piperazin-1-yl)-N-((3-methyl-5-nitro-3,4-dihydro-2H-benzo[b][1,4]oxazin-7-yl)sulfonyl)benza-mide] | 26 | 28 |  |  |
| CC[C@H]1COc2cc(S(=O)(=O)NC(=O)c3ccc(N4CCN(CC5=C(c6ccc(Cl)cc6)CC(C)(C)CC5)CC4)cc3Oc3cnc4[nH]ccc4c3)cc([N+](=O)[O-])c2N1 [Example 2-112] | 15 | 11 |  |  |
| CC(C)[C@H]1COc2cc(S(=O)(=O)NC(=O)c3ccc(N4CCN(CC5=C(c6ccc(Cl)cc6)CC(C)(C)CC5)CC4)cc3Oc3cnc4[nH]ccc4c3)cc([N+](=O)[O-])c2N1 [Example 2-113, (S)-2-((1H-pyrrolo[2,3-b]pyridin-5-yl)oxy)-4-(4-((4′-chloro-5,5-dimethyl-3,4,5,6-tetra-hydro-[1,1′-biphenyl]-2-yl)methyl)piperazin-1-yl)-N-((3-isopropyl-5-nitro-3,4-dihydro-2H-benzo[b][1,4]oxazin-7-yl)sulfonyl) benzamide] | 20 | 6 |  |  |
| CC1(C)CCC(CN2CCN(c3ccc(C(=O)NS(=O)(=O)c4cc5c(c([N+](=O)[O-])c4)N[C@@H](C4CC4)CO5)c(Oc4cnc5[nH]ccc5c4)c3)CC2)=C(c2ccc(Cl)cc2)C1 [Example 2-114, (S)-2-((1H-pyrrolo[2,3-b]pyridin-5-yl)oxy)-4-(4-((4′-chloro-5,5-dimethyl-3,4,5,6-tetra-hydro-[1,1′-biphenyl]-2-yl)methyl)piperazin-1-yl)-N-((3-cyclopropyl-5-nitro-3,4-di-hydro-2H-benzo[b][1,4]oxazin-7-yl)sulfonyl)benzamide] | 48 | 1 |  |  |
| CC1(C)CCC(CN2CCN(c3ccc(C(=O)NS(=O)(=O)c4cc5c(c([N+](=O)[O-])c4)N[C@@H](CC#N)CO5)c(Oc4cnc5[nH]ccc5c4)c3)CC2)=C(c2ccc(Cl)cc2)C1 [Example 2-115, (S)-2-((1H-pyrrolo[2,3-b]pyridin-5-yl)oxy)-4-(4-((4′-chloro-5,5-dimethyl-3,4,5,6-tetra-hydro-[1,1′-biphenyl]-2-yl)methyl)piperazin-1-yl)-N-((3-(cyanomethyl)-5-nitro-3,4-di-hydro-2H-benzo[b][1,4]oxazin-7-yl)sulfonyl-yl)benzamide] |  |  | 38 | 6 |
| COC[C@H]1COc2cc(S(=O)(=O)NC(=O)c3ccc(N4CCN(CC5=C(c6ccc(Cl)cc6)CC(C)(C)CC5)CC4)cc3Oc3cnc4[nH]ccc4c3)cc([N+](=O)[O-])c2N1 [Example 2-116, (S)-2-((1H-pyrrolo[2,3-b]pyridin-5-yl)oxy)-4-(4-((4′-chloro-5,5-dimethyl-3,4,5,6-tetra-hydro-[1,1′-biphenyl]-2-yl)methyl)piperazin-1-yl)-N-((3-(methoxymethyl)-5-nitro-3,4-dihydro-2H-benzo[b][1,4]oxazin-7-yl)sulfonyl)benzamide] | 83 | 16 |  |  |
| CC1(C)CCC(CN2CCN(c3ccc(C(=O)NS(=O)(=O)c4cc5c(c([N+](=O)[O-])c4)N[C@@H](COC(=O)N4CCOCC4)CO5)c(Oc4cnc5[nH]ccc5c4)c3)CC2)=C(c2ccc(Cl)cc2)C1 [Example 2-117, (R)-(7-(N-(2-((1H-pyrrolo[2,3-b]pyridin-5-yl)oxy)-4-(4-((4′-chloro-5,5-dimethyl-3,4,5,6-tetrahydro-[1,1′-biphenyl]-2-yl)methyl)piperazin-1-yl)benzoyl)sulfamoyl)-5-nitro-3,4-dihydro-2H-benzo[b][1,4]oxazin-3-yl)methyl morpholine-4-carboxylate] | 41 | 44 |  |  |
| COCC[C@H]1COc2cc(S(=O)(=O)NC(=O)c3ccc(N4CCN(CC5=C(c6ccc(Cl)cc6)CC(C)(C)CC5)CC4)cc3Oc3cnc4[nH]ccc4c3)cc([N+](=O)[O-])c2N1 [Example 2-118, (S)-2-((1H-pyrrolo[2,3-b]pyridin-5-yl)oxy)-4-(4-((4′-chloro-5,5-dimethyl-3,4,5,6-tetra-hydro-[1,1′-biphenyl]-2-yl)methyl)piperazin-1-yl)-N-((3-(2-methoxyethyl)-5-nitro-3,4-dihydro-2H-benzo[b][1,4]oxazin-7-yl)sulfonyl)benzamide] | 649 | 11 |  |  |
| CC1(C)CCC(CN2CCN(c3ccc(C(=O)NS(=O)(=O)c4cc5c(c([N+](=O)[O-])c4)N[C@@H](CN4CCS(=O)(=O)CC4)CO5)c(Oc4cnc5[nH]ccc5c4)c3)CC2)=C(c2ccc(Cl)cc2)C1 [Example 2-121, (S)-2-((1H-pyrrolo[2,3-b]pyridin-5-yl)oxy)-4-(4-((4′-chloro-5,5-dimethyl-3,4,5,6-tetra-hydro-[1,1′-biphenyl]-2-yl)methyl)piperazin-1-yl)-N-((3-((1,1-dioxidothiomorpholino)methyl)-5-nitro-3,4-dihydro-2H-benzo[b][1,4]oxazin-7-yl)sulfonyl)benzamide] | 48 | 36 |  |  |
| CC1(C)CCC(CN2CCN(c3ccc(C(=O)NS(=O)(=O)c4cc5c(c([N+](=O)[O-])c4)N[C@@H](CN4CCC(N=S(C)(C)=O)CC4)CO5)c(Oc4cnc5[nH]ccc5c4)c3)CC2)=C(c2ccc(Cl)cc2)C1 [Example 2-125, (S)-2-((1H-pyrrolo[2,3-b]pyridin-5-yl)oxy)-4-(4-((4′-chloro-5,5-dimethyl-3,4,5,6-tetra-hydro-[1,1′-biphenyl]-2-yl)methyl)piperazin-1-yl)-N-((3-((4-((dimethyl(oxo)-λ^6-sulfanyl-idene)amino)piperidin-1-yl)methyl)-5-nitro-3,4-dihydro-2H-benzo[b][1,4]oxa-zin-7-yl)sulfonyl)benzamide] | 43 | 19 |  |  |
